Laboratory results taken from PubChem BioAssay (NCI).
Where “and” joins values, the source holds several entries; their conditions need not be identical. Identical values can stand only once.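 1) Cells in 96-well plates. 2) Compound, 48 h, 5 concentrations. 3) Linear interpolation between surrounding doses. 4) Unreached endpoint = highest concentration. At the GI50, growth is halved. The concentration for full growth arrest is given as TGI.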

What was measured:
Test in all cases: inhibition of tumour cell growth, NCI panel, 48 h
CAKI-1 renal = system: CAKI-1 renal
HCT-116 colon = system: HCT-116 colon
UO-31 renal = system: UO-31 renal
M19-MEL melanoma = system: M19-MEL melanoma
MALME-3M melanoma = system: MALME-3M melanoma
CCRF-CEM leukemia = system: CCRF-CEM leukemia
SNB-78 CNS = system: SNB-78 CNS
KM20L2 colon = system: KM20L2 colon
786-0 renal = system: 786-0 renal
NCI-H522 lung = system: NCI-H522 lung
NCI-H226 lung = system: NCI-H226 lung
HS 578T breast = system: HS 578T breast

SMILES | TGI (CAKI-1 renal) | TGI (HCT-116 colon) | TGI (UO-31 renal) | TGI (M19-MEL melanoma) [µM] | TGI (MALME-3M melanoma) | GI50 (CCRF-CEM leukemia) | TGI (CCRF-CEM leukemia) | TGI (SNB-78 CNS) [µM] | TGI (KM20L2 colon) [µM] | TGI (786-0 renal) | GI50 (NCI-H522 lung) | TGI (NCI-H522 lung) | GI50 (NCI-H226 lung) | TGI (NCI-H226 lung) [µM] | GI50 (CAKI-1 renal) | GI50 (HCT-116 colon) [µM] | GI50 (UO-31 renal) | GI50 (MALME-3M melanoma) [µM] | TGI (HS 578T breast) [µM] | GI50 (HS 578T breast) [µM]
CSC1CC2C(CC1(C)O)C2(C)C (stereo not given) | > 100 µM | > 100 µM | > 100 µM | > 100 | > 100 µM | 49.3 µM and > 100 µM | > 100 µM | > 100 | > 100 | > 100 µM | 33.8 µM and > 100 µM | > 100 µM | 38.5 µM and > 100 µM | > 100 | – | – | – | – | – | –
CCC12C[N+]3([O-])CCc4c([nH]c5ccccc45)C(C(=O)OC)(c4cc5c(cc4OC)N(C)C4C(O)(C(=O)OC)C(OC(C)=O)C6(CC)C=CCN7CCC54C76)CC(C3)C1O2 (stereo not given) | 30.1 µM | 11.6 µM | 14.4 µM | 16 | 22.9 µM | – | 6.87 µM | 4.65 | 1.52 | 7.95 µM | – | 0.282 µM | – | – | – | – | – | – | – | –
CC(C)(C)C1=Cc2cc3cc(C(C)(C)C)[nH]c(=O)c3cc2S(=O)(=O)N1 | 38.5 µM | 42.8 µM | 35.8 µM | 40.7 | 57.7 µM | – | 56.9 µM | > 100 | – | > 100 µM | – | 32.3 µM | – | 47.7 | – | – | – | – | – | –
CCN(CC)CCNc1ccc2nnn3c4ccc(OC)cc4c(=O)c1c23 | 27.6 µM | 14.5 µM | 22.2 µM | 26.3 | 22.3 µM | – | 32.7 µM | 25.8 | 20 | 17.9 µM | – | 19.6 µM | – | 20 | – | – | – | – | – | –
CCC(C(=O)O)c1ccc(OCc2ccccc2)cc1 (stereo not given) | > 100 µM | > 100 µM | > 100 µM | – | > 100 µM | – | > 100 µM | > 100 | > 100 | – | – | > 100 µM | – | > 100 | – | – | – | – | – | –
NC(=O)C(=O)N/N=C1/c2ccccc2CC1C1(O)C(=O)Nc2c(Cl)cc(Cl)cc21 (stereo not given) | > 100 µM | > 100 µM | > 100 µM | > 100 | > 100 µM | – | > 100 µM | > 100 | > 100 | – | – | > 100 µM | – | > 100 | – | – | – | – | – | –
C=C1C(O)C2(O)OCC34C(CC5C(C)=CC(=O)C(O)C5(C)C23)OC(=O)C(OC(=O)C/C=C(\C)CCCCC)C14 (stereo not given) | – | – | 0.269 µM and 1.21 µM and 0.22 µM | 0.0173 | < 0.001 µM | < 0.001 µM | – | 0.0373 | 0.199 | 0.00681 µM and 0.0244 µM | < 0.001 µM | – | < 0.001 µM | – | 0.0274 µM and 0.0875 µM | < 0.001 | 0.0483 µM and 0.258 µM | < 0.001 | < 0.001 | –
COc1cc(/C=C/C(=O)O)ccc1C(=O)O/C=C/c1ccccc1 | – | > 100 µM | > 100 µM | > 100 | > 100 µM | – | > 100 µM | > 100 | > 100 | – | – | > 100 µM | – | > 100 | – | – | – | – | – | –
COCOc1ccc(OC)cc1 | > 100 µM | > 100 µM | > 100 µM | > 100 | > 100 µM | – | > 100 µM | > 100 | > 100 | – | – | – | – | > 100 | – | – | – | – | – | –
C=C1C(=O)OC2/C=C(\CO)C(OC(C)=O)CC(O)/C(C)=C/C(OC(=O)C(C)CC)C12 (stereo not given) | 73.3 µM and 50.5 µM | 27.6 µM and 42.5 µM | > 100 µM | 33 | 31.2 µM and 32 µM | 3.76 µM and 11.4 µM | 22.7 µM and 69 µM | 42.9 | 58.6 | 28.8 µM and 52.9 µM | – | 15.6 µM and 20.3 µM | – | 59.6 | – | – | – | – | > 100 | –
C/C(=C\c1ccccc1)C(=O)CCN1CCOCC1 | 32.5 µM | > 56.4 µM | 41.5 µM | 33.8 | 33 µM | – | > 67.2 µM | 35.4 | 36.1 | – | – | 22.3 µM | – | > 65 | – | – | – | – | – | –
C=C1[C@@H](O)C[C@@]23CC[C@@H]4[C@@]5(C)CC[C@@H](OC(C)=O)C(C)(C)[C@@H]5C[C@@H](OC5OC(COC(C)=O)C(O)C(O)C5O)[C@@]4(C)C2=CC[C@H]3[C@H]1C (stereo not given in full) | 26.7 µM | 10.7 µM | 28 µM | – | 23.9 µM | – | 9.82 µM | – | – | 18.9 µM | – | 21.1 µM | – | 17.4 | – | – | – | – | 22.4 | –
COc1ccc2c(c1)O/C(=C\c1cccc(OCC(=O)Nc3nc4c(s3)CCCC4)c1)C2=O | > 100 µM | > 100 µM | 3.15 µM | – | 5.34 µM | 2.07 µM | 7.79 µM | – | – | > 19.9 µM | 3.79 µM | 13.9 µM | > 100 µM | > 100 | 4.66 µM | > 43.8 | 1.69 µM | 2.39 | > 100 | 35.1
CC(C)=CCc1c2c(c3occ(-c4ccc(O)c(O)c4)c(=O)c3c1O)C=CC(C)(C)O2 | 3.02 µM | 4.29 µM | 2.9 µM | – | 2.53 µM | – | 2.71 µM | – | – | 2.88 µM | – | 0.458 µM | – | 34.6 | – | – | – | – | 3.73 | –
O=c1cc(/C=C/c2ccc(O)c(O)c2)oc(/C=C/c2ccc(O)c(O)c2)c1 | 11.4 µM | 15.5 µM | 15.8 µM | – | 19.1 µM | – | 7.74 µM | – | – | 17.7 µM | – | 4 µM | – | 28.1 | – | – | – | – | 65.9 | –
COC(=O)NN(C(=O)OC)c1c(-c2ccccc2)nc(SC)n1N | > 100 µM | > 100 µM | > 100 µM | – | > 100 µM | – | > 100 µM | – | – | > 100 µM | – | > 100 µM | – | > 100 | – | – | – | – | > 100 | –
Cc1cc(C)c2c(=O)n(CN3CC4Nc5ccccc5C4C3)sc2n1 (stereo not given) | 57.6 µM | 43.7 µM | 32.5 µM | – | 27.8 µM | – | > 100 µM | – | – | 33.8 µM | – | 14.2 µM | – | 81.1 | – | – | – | – | > 100 | –
CC(=O)N/N=C1/NN(C(C)=O)C2(S1)C(=O)Nc1ccc(Br)cc12 (stereo not given) | > 100 µM | > 100 µM | > 100 µM | – | > 100 µM | – | > 100 µM | – | – | > 100 µM | – | > 100 µM | – | > 100 | – | – | – | – | > 100 | –
